From patent US8093250B2, “2-aminocarbonyl-pyridine derivatives” (Actelion Pharmaceuticals Ltd., priority 2006, dated 2012)

Molecular target: T1, human P2Y12 receptor (Homo sapiens, UniProt Q9H244)
T1 construct: expressed in transfected cells; host or cells: Chinese Hamster Ovary (CHO) cells
Assay: P2Y12 receptor binding assay
Conditions: CHO cells with recombinant human P2Y12 receptor; tritium-labeled 2-methyl-S-ADP; 2 hours at RT
Description: Chinese Hamster Ovary (CHO) cells with recombinant expression of the human P2Y12 receptor were cultured in 24 well cell-culture plates. Cells were washed three times with binding buffer (50 mM Tris pH 7.4, 100 mM NaCl, 1 mM EDTA, 0.5% BSA). The cells were then incubated with 0.5 ml per well binding buffer containing tritium-labeled 2-methyl-thio-adenosine 5′-diphosphate (2-methyl-S-ADP) (between 100'000 and 300'000 dpm per well) and various concentrations of test compounds. After incubation at RT for 2 hours, cells were washed three times with binding buffer. Then, cells were solubilized by addition of 0.5 ml solubilization buffer (SDS, NaOH, EDTA). The content of each well was then transferred into beta-counter vials and 2.0 ml of Ultima Gold Scintillation liquid was added.

T1 sequence (Q9H244 whole entry): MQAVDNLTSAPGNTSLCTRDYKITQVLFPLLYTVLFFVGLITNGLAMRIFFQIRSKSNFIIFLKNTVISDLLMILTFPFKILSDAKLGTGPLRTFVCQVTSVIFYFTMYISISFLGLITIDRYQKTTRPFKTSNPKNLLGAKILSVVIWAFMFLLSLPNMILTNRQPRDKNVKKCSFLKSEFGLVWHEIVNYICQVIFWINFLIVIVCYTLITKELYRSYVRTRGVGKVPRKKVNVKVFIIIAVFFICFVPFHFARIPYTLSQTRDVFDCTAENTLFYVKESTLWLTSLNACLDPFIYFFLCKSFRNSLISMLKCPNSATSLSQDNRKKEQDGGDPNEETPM

SMILES | IC50 [nM]
CCOC(=O)N1CCN(C(=O)[C@H](CCC(=O)O)NC(=O)c2cc(Cl)cc(-c3ccccc3)n2)CC1 [Example 1, 4-{(S)-4-carboxy-2-[(4-chloro-6-phenyl-pyridine-2-carbonyl)-amino]-butyryl}-piperazine-1-carboxylic acid ethyl ester] | 34
CCOC(=O)N1CCN(C(=O)[C@H](CO)NC(=O)c2cc(-c3ccccc3)cc(-c3ccccc3)n2)CC1 [Example 24, 4-{(S)-2-[(4,6-diphenyl-pyridine-2-carbonyl)-amino]-3-hydroxy-propionyl}-piperazine-1-carboxylic acid ethyl ester] | 204
CCOC(=O)N1CCN(C(=O)[C@H](CCC(=O)O)NC(=O)c2cc(CCC(C)(C)O)cc(-c3ccccc3)n2)CC1 [Example 28, 4-((S)-4-carboxy-2-{[4-(3-hydroxy-3-methyl-butyl)-6-phenyl-pyridine-2-carbonyl]-amino}-butyryl)-piperazine-1-carboxylic acid ethyl ester] | 96
CCOC(=O)N1CCN(C(=O)[C@H](CCC(=O)O)NC(=O)c2cc(-c3ccsc3)cc(-c3ccccc3)n2)CC1 [Example 32, 4-{(S)-4-carboxy-2-[(6-phenyl-4-thiophen-3-yl-pyridine-2-carbonyl)-amino]-butyryl}-piperazine-1-carboxylic acid ethyl ester] | 67
CCOC(=O)N1CCN(C(=O)[C@H](CCC(=O)O)NC(=O)c2cc(OC3CCOC3)cc(-c3ccccc3)n2)CC1 (stereo partly drawn) [Example 37, 4-((S)-4-carboxy-2-{[6-phenyl-4-(tetrahydro-furan-3-yloxy)-pyridine-2-carbonyl]-amino}-butyryl)-piperazine-1-carboxylic acid ethyl ester] | 94
CCOC(=O)N1CCN(C(=O)[C@H](CCC(=O)OC(C)(C)C)NC(=O)c2cc(Cl)cc(-c3ccccc3)n2)CC1 [Example 39, 4-{(S)-4-O-tert-butoxycarbonyl-2-[(4-chloro-6-phenyl-pyridine-2-carbonyl)-amino]-butyryl}-piperazine-1-carboxylic acid ethyl ester] | 2150
CCOC(=O)N1CCN(C(=O)[C@H](Cc2nn[nH]n2)NC(=O)c2cc(-c3ccccc3)cc(-c3ccccc3)n2)CC1 [Example 66, 4-[(S)-2-[(4,6-diphenyl-pyridine-2-carbonyl)-amino]-3-(2H-tetrazol-5-yl)-propionyl]-piperazine-1-carboxylic acid ethyl ester] | 40
CCCCOC(=O)N1CCN(C(=O)[C@@H](NC(=O)c2cc(N3CC[C@H](OC)C3)cc(-c3ccccc3)n2)C(C)C)CC1 [Example 69, 4-((S)-2-{[4-((S)-3-methoxy-pyrrolidin-1-yl)-6-phenyl-pyridine-2-carbonyl]-amino}-3-methyl-butyryl)-piperazine-1-carboxylic acid butyl ester] | 109
CCOC(=O)N1CCN(C(=O)[C@H](CCC(=O)O)NC(=O)c2nc(-c3ccccc3)cc(C3CC3)c2OC)CC1 [Example 71, 4-{(S)-4-carboxy-2-[(4-cyclopropyl-3-methoxy-6-phenyl-pyridine-2-carbonyl)-amino]-butyryl}-piperazine-1-carboxylic acid ethyl ester] | 510
CCCCOC(=O)N1CCN(C(=O)[C@H](CCC(=O)OC(C)(C)C)NC(=O)c2cc(N3CC[C@H](OC)C3)cc(-c3ccccc3)n2)CC1 [Example 72, 4-((S)-4-tert-butoxycarbonyl-2-{[4-((S)-3-methoxy-pyrrolidin-1-yl)-6-phenyl-pyridine-2-carbonyl]-amino}-butyryl)-piperazine-1-carboxylic acid butyl ester] | 1760
CCCCNc1cc(C(=O)N[C@@H](CCC(=O)O)C(=O)N2CCN(C(=O)OCC)CC2)nc(-c2ccccc2)c1F [Example 75, 4-{(S)-2-[(4-butylamino-5-fluoro-6-phenyl-pyridine-2-carbonyl)-amino]-4-carboxy-butyryl}-piperazine-1-carboxylic acid ethyl ester] | 386
